Measured values as given in patent US8614201B2 (Janssen Pharmaceutica NV, priority 2009, dated 2013).

biological target: Human TRPA1 (Homo sapiens, UniProt O75762); assay: Alternative TRPA1 Ca2+ fluorometry assay (hTRPA1/TREx-HEK293 cells, Fluo-4, FDSS 6000); format: cell-based; parameters: expressed in transfected cells; details: Fluo-4-AM, agonist 6,11-dihydro-5H-dibenzo[b,e]azepine-10-carboxylic acid methyl ester 25 nM, procedure used for Examples 184, 190 to 192, 194 to 316
How it was run: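 Tetracycline-induced (50 ng/ml, 24 h) hTRPA1/TREx-HEK293 cells were loaded with Fluo-4-AM and probenecid. Compound (1% DMSO final) was added after a 12 s baseline and the Ca2+ signal followed for 14 min, then 25 nM TRPA1 agonist dibenzazepine carboxylic acid methyl ester was applied. Signal is Em540 (ex 488 nm) relative to the first baseline reading.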

Human TRPA1, sequence (O75762 whole entry): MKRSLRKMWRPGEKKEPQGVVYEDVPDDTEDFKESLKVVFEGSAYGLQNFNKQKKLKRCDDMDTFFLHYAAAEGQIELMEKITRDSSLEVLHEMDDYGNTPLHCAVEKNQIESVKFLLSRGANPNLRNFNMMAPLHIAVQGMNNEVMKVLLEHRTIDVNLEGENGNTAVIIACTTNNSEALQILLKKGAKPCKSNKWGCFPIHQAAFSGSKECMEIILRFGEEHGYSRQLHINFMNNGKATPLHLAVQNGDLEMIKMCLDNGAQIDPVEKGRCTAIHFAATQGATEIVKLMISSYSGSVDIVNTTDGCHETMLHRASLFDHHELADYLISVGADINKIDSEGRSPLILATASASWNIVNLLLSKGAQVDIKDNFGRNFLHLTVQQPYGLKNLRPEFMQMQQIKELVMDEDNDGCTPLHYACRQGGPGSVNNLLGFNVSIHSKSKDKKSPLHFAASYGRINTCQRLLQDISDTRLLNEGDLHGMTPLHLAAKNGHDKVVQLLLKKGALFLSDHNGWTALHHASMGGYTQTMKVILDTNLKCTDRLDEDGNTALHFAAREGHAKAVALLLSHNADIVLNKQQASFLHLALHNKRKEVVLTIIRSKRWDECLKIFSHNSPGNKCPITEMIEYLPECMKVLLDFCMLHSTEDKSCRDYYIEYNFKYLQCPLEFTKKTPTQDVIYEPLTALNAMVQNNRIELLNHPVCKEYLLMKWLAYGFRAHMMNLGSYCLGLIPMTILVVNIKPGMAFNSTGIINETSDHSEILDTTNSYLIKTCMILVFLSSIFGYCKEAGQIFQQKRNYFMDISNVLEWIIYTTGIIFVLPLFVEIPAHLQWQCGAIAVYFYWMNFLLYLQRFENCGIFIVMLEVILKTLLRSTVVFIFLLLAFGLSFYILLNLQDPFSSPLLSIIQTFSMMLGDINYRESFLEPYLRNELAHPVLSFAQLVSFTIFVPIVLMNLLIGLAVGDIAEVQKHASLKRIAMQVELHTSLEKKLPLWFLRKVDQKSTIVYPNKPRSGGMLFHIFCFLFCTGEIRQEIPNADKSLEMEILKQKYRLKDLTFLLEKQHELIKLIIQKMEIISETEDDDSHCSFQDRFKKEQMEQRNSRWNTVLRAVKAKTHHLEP

**Q.** For `NC(=O)C1CCCN(c2nc(CNC(=O)[C@@H]3CCCN3S(=O)(=O)c3ccc(F)cc3)cc(-c3ccc(C(F)(F)F)cc3)n2)C1` (stereo partly drawn) [Example 298, 1-[4-({[1-(4-Fluoro-benzenesulfonyl)-pyrrolidine-2S-carbonyl]-amino}-methyl)-6-(4-trifluoromethyl-phenyl)-pyrimidin-2-yl]-piperidine-3-carboxylic acid amide], which IC50 is on record?
**A.** 4680 nM

**Q.** Which IC50 does the source give for `O=C(NCc1cc(-c2ccc(C(F)(F)F)cc2)nc(NCCC2C=Nc3ccccc32)n1)[C@@H]1CCCN1S(=O)(=O)c1ccc(F)cc1` (stereo partly drawn) [Example 299, 1-(4-Fluoro-benzenesulfonyl)-pyrrolidine-2S-carboxylic acid [2-[2-(3H-indol-3-yl)-ethylamino]-6-(4-trifluoromethyl-phenyl)-pyrimidin-4-ylmethyl]-amide] here?
**A.** ~1590 nM

**Q.** Which IC50 does the source give for `O=C(NCc1cc(-c2ccc(Br)cc2)nc(N2CCN(c3ccc(F)cc3)CC2)n1)[C@@H]1CCCN1S(=O)(=O)c1ccc(F)cc1` [Example 300, 1-(4-Fluoro-benzenesulfonyl)-pyrrolidine-2S-carboxylic acid {6-(4-bromo-phenyl)-2-[4-(4-fluoro-phenyl)-piperazin-1-yl]-pyrimidin-4-ylmethyl}-amide] here?
**A.** 2510 nM

**Q.** How did the IC50 turn out when `NS(=O)(=O)c1ccc(CCNc2nc(CNC(=O)[C@@H]3CCCN3S(=O)(=O)c3ccc(F)cc3)cc(-c3ccc(Br)cc3)n2)cc1` [Example 301, 1-(4-Fluoro-benzenesulfonyl)-pyrrolidine-2S-carboxylic acid {6-(4-bromo-phenyl)-2-[2-(4-sulfamoyl-phenyl)-ethylamino]-pyrimidin-4-ylmethyl}-amide] was run?
**A.** 5620 nM

**Q.** Which IC50 does the source give for `O=C(NCc1cc(-c2ccc(Br)cc2)nc(N2CCC[C@H]2CO)n1)[C@@H]1CCCN1S(=O)(=O)c1ccc(F)cc1` [Example 302, 1-(4-Fluoro-benzenesulfonyl)-pyrrolidine-2S-carboxylic acid [6-(4-bromo-phenyl)-2-(2S-hydroxymethyl-pyrrolidin-1-yl)-pyrimidin-4-ylmethyl]-amide] here?
**A.** 8710 nM

**Q.** For `O=C(NCc1cc(-c2ccc(C(F)(F)F)cc2)nc(N2CCc3ccccc3C2)n1)[C@@H]1CCCN1S(=O)(=O)c1ccc(F)cc1` [Example 303, 1-(4-Fluoro-benzenesulfonyl)-pyrrolidine-2S-carboxylic acid [2-(3,4-dihydro-1H-isoquinolin-2-yl)-6-(4-trifluoromethyl-phenyl)-pyrimidin-4-ylmethyl]-amide], which IC50 is on record?
**A.** ~2820 nM

**Q.** For `O=C(NCc1cc(-c2ccc(C(F)(F)F)cc2)nc(N2CCN(c3ccc(F)cc3)CC2)n1)[C@@H]1CCCN1S(=O)(=O)c1ccc(F)cc1` [Example 304, 1-(4-Fluoro-benzenesulfonyl)-pyrrolidine-2S-carboxylic acid [2-[4-(4-fluoro-phenyl)-piperazin-1-yl]-6-(4-trifluoromethyl-phenyl)-pyrimidin-4-ylmethyl]-amide], which IC50 is on record?
**A.** 331 nM

**Q.** Which IC50 does the source give for `O=C(NCc1cc(-c2ccc3c(c2)OCO3)nc(N2CCN(Cc3ccc4c(c3)OCO4)CC2)n1)[C@@H]1CCCN1S(=O)(=O)c1ccc(F)cc1` [Example 305, 1-(4-Fluoro-benzenesulfonyl)-pyrrolidine-2S-carboxylic acid [6-benzo[1,3]dioxol-5-yl-2-(4-benzo[1,3]dioxol-5-ylmethyl-piperazin-1-yl)-pyrimidin-4-ylmethyl]-amide] here?
**A.** ~5890 nM

**Q.** Which IC50 does the source give for `CC1CCN(c2nc(CNC(=O)[C@@H]3CCCN3S(=O)(=O)c3ccc(F)cc3)cc(-c3ccc4c(c3)OCO4)n2)CC1` [Example 306, 1-(4-Fluoro-benzenesulfonyl)-pyrrolidine-2S-carboxylic acid [6-benzo[1,3]dioxol-5-yl-2-(4-methyl-piperidin-1-yl)-pyrimidin-4-ylmethyl]-amide] here?
**A.** ~2090 nM

**Q.** How did the IC50 turn out when `O=C(NCc1cc(-c2ccc(C(F)(F)F)cc2)nc(NC2CCc3ccccc32)n1)[C@@H]1CCCN1S(=O)(=O)c1ccc(F)cc1` (stereo partly drawn) [Example 307, 1-(4-Fluoro-benzenesulfonyl)-pyrrolidine-2S-carboxylic acid [2-(indan-1-ylamino)-6-(4-trifluoromethyl-phenyl)-pyrimidin-4-ylmethyl]-amide] was run?
**A.** ~354 nM

**Q.** Which IC50 does the source give for `CC(C)[C@@H](CO)Nc1nc(CNC(=O)[C@@H]2CCCN2S(=O)(=O)c2ccc(F)cc2)cc(-c2ccc(C(F)(F)F)cc2)n1` [Example 308, 1-(4-Fluoro-benzenesulfonyl)-pyrrolidine-2S-carboxylic acid [2-(1-hydroxymethyl-2-methyl-propylamino)-6-(4-trifluoromethyl-phenyl)-pyrimidin-4-ylmethyl]-amide] here?
**A.** 1780 nM

**Q.** Which IC50 does the source give for `CC(=O)c1ccc(N2CCN(c3nc(CNC(=O)[C@@H]4CCCN4S(=O)(=O)c4ccc(F)cc4)cc(-c4ccc(C(F)(F)F)cc4)n3)CC2)cc1` [Example 309, 1-(4-Fluoro-benzenesulfonyl)-pyrrolidine-2S-carboxylic acid [2-[4-(4-acetyl-phenyl)-piperazin-1-yl]-6-(4-trifluoromethyl-phenyl)-pyrimidin-4-ylmethyl]-amide] here?
**A.** 1170 nM

**Q.** `CCCCNc1nc(CNC(=O)[C@@H]2CCCN2S(=O)(=O)c2ccc(F)cc2)cc(-c2ccc(C(F)(F)F)cc2)n1` [Example 310, 1-(4-Fluoro-benzenesulfonyl)-pyrrolidine-2S-carboxylic acid [2-butylamino-6-(4-trifluoromethyl-phenyl)-pyrimidin-4-ylmethyl]-amide] was tested. Which IC50 did it give?
**A.** 407 nM

**Q.** How did the IC50 turn out when `CC(Nc1nc(CNC(=O)[C@@H]2CCCN2S(=O)(=O)c2ccc(F)cc2)cc(-c2ccc3c(c2)OCO3)n1)c1ccccc1` (stereo partly drawn) [Example 311, 1-(4-Fluoro-benzenesulfonyl)-pyrrolidine-2S-carboxylic acid [6-benzo[1,3]dioxol-5-yl-2-(1-phenyl-ethylamino)-pyrimidin-4-ylmethyl]-amide] was run?
**A.** ~1510 nM

**Q.** With `O=C(NCc1cc(-c2ccc(C(F)(F)F)cc2)nc(NCCc2cccnc2)n1)[C@@H]1CCCN1S(=O)(=O)c1ccc(F)cc1` [Example 312, 1-(4-Fluoro-benzenesulfonyl)-pyrrolidine-2S-carboxylic acid [2-(2-pyridin-3-yl-ethylamino)-6-(4-trifluoromethyl-phenyl)-pyrimidin-4-ylmethyl]-amide] as the compound, how does the IC50 read?
**A.** 295 nM

**Q.** `CC(Nc1nc(CNC(=O)[C@@H]2CCCN2S(=O)(=O)c2ccc(F)cc2)cc(-c2ccc(C(F)(F)F)cc2)n1)c1ccccc1` (stereo partly drawn) [Example 313, 1-(4-Fluoro-benzenesulfonyl)-pyrrolidine-2S-carboxylic acid [2-(1-phenyl-ethylamino)-6-(4-trifluoromethyl-phenyl)-pyrimidin-4-ylmethyl]-amide] was tested. Which IC50 did it give?
**A.** ~489 nM

**Q.** Which IC50 does the source give for `CN1CCN(c2nc(CNC(=O)[C@@H]3CCCN3S(=O)(=O)c3ccc(F)cc3)cc(-c3ccc(C(F)(F)F)cc3)n2)CC1` [Example 314, 1-(4-Fluoro-benzenesulfonyl)-pyrrolidine-2-carboxylic acid [2-(4-methyl-piperazin-1-yl)-6-(4-trifluoromethyl-phenyl)-pyrimidin-4-ylmethyl]-amide] here?
**A.** ~1320 nM

**Q.** How did the IC50 turn out when `O=C(NCc1cc(-c2ccc(C(F)(F)F)cc2)nc(NCCN2CCOCC2)n1)[C@@H]1CCCN1S(=O)(=O)c1ccc(F)cc1` [Example 315, 1-(4-Fluoro-benzenesulfonyl)-pyrrolidine-2S-carboxylic acid [2-(2-morpholin-4-yl-ethylamino)-6-(4-trifluoromethyl-phenyl)-pyrimidin-4-ylmethyl]-amide] was run?
**A.** ~450 nM

**Q.** Which IC50 does the source give for `O=C(NCc1cc(-c2ccc(Br)cc2)nc(NCCN2CCOCC2)n1)[C@@H]1CCCN1S(=O)(=O)c1ccc(F)cc1` [Example 316, 1-(4-Fluoro-benzenesulfonyl)-pyrrolidine-2S-carboxylic acid [6-(4-bromo-phenyl)-2-(2-morpholin-4-yl-ethylamino)-pyrimidin-4-ylmethyl]-amide] here?
**A.** 1450 nM
